In patent publication US12662491B2 (Redona Therapeutics, Inc., priority 2020, dated 2026):
Like-named read-outs stand apart in the source and are kept apart here.

Molecular target: T1, Zcchc11 enzyme (Homo sapiens, UniProt Q5TAX3)
T1 construct: made in house; host or cells: HEK293 cells (Zcchc11); E. coli Rosetta II (LIN28A)
T1 sequence (Q5TAX3 212-1420): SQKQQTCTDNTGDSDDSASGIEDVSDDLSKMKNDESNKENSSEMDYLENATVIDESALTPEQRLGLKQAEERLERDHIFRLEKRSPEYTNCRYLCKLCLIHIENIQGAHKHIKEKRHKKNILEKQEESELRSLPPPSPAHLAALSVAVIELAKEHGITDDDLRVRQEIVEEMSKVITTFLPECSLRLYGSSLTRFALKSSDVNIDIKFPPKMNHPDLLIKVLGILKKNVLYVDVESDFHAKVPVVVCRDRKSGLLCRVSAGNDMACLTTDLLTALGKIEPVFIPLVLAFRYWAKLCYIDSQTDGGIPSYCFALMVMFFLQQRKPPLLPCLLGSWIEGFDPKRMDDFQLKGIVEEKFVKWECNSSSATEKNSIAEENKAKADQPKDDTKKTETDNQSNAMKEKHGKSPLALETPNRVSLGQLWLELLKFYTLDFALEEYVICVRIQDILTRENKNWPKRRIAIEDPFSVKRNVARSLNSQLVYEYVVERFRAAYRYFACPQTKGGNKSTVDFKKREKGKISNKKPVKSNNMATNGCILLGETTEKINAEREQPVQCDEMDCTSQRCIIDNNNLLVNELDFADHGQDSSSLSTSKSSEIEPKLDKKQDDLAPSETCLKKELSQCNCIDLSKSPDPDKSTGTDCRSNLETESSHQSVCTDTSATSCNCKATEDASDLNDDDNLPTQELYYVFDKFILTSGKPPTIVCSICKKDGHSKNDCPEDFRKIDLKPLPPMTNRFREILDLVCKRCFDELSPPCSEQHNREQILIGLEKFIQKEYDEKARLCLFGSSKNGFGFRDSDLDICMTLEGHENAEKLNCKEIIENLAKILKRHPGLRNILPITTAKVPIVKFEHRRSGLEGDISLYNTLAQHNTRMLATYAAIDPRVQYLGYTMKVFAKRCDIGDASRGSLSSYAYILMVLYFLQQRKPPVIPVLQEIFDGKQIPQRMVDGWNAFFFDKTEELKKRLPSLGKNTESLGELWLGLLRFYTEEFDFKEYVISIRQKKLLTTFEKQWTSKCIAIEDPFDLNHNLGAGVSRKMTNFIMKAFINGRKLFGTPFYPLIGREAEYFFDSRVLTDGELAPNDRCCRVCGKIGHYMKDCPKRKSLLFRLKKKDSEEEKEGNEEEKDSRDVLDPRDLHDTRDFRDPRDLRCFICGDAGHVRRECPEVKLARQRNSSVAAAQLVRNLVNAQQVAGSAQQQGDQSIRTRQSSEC
Experiment: TUTase assay (Zcchc11 assay, Lin28a-dependent polyuridylation of pre-let-7)
Format: biochemical
Details: read-out: Potency Lin28a-dep Z11 IC50
In short: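 LIN28A (10 nM) in pH 7.3 HEPES/KCl/MgCl2/DTT buffer was mixed with serially diluted compound, then 0.2 nM truncated human Zcchc11 and 2 nM labeled pre-let-7 were added for 30 min at room temperature. UTP (5 uM) and quench probe (4 nM) then started the reaction. Linear early rates gave IC50 values.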

[1] = Lin28a-dependent Zcchc11 (Z11) TUTase assay
[2] = Lin28a-dependent Zcchc11 (Z11) TUTase activity

Structure (SMILES)	IC50 [1] [nM]	IC50 [2] [nM]	also measured
CS(=O)(=O)NC1CCC(n2cc(C(=O)O)c(=O)c3cc(F)c(N4CCC[C@@H]4COc4ccccn4)cc32)CC1 (stereo partly drawn) [Example 360, (R)-6-fluoro-1-(4-(methyl-sulfonamido)cyclo-hexyl)-4-oxo-7-(2-((pyridin-2-yloxy)methyl)pyrrolidin-1-yl)-1,4-dihydro-quinoline-3-carboxylic acid]	1000 to 10000		
Nc1ccc(-n2cc(C(=O)O)c(=O)c3cc(Cl)c(N4CCC[C@@H]4COc4ncccc4F)cc32)cn1 [Compound 214, 1-(6-Aminopyridin-3-yl)-6-chloro-7-[(2R)-2-{[(3-fluoropyridin-2-yl)oxy]methyl}pyrrolidin-1-yl]-4-oxoquinoline-3-carboxylic acid]		≤ 1000	
CN(C)C1CN(c2ccc(-n3cc(C(=O)O)c(=O)c4cc(Cl)c(N5CCC[C@]5(C)COc5ncccc5Cl)nc43)cn2)C1 [Example 56, 6-chloro-7-[(2R)-2-[[(3-chloropyridin-2-yl)oxy]methyl]-2-methylpyrrolidin-1-yl]-1-[6-[3-(dimethylamino)azetidin-1-yl]pyridin-3-yl]-4-oxo-1,8-naphthyridine-3-carboxylic acid]			IC50 (LIN28A 10 nM, Zcchc11 0.2 nM, 5′-fluorescein pre-let-7 miRNA 2 nM, UTP 5 uM, room temperature, 30 minutes pre-incubation): ≤ 1000 nM
COCc1ccccc1-n1cc(C(=O)O)c(=O)c2cc(F)c(N3CCC[C@@H]3COc3ccccn3)cc21 [Example 407, (R)-6-fluoro-1-(2-(methoxymethyl)phenyl)-4-oxo-7-(2-((pyridin-2-yloxy)methyl)pyrrolidin-1-yl)-1,4-dihydroquinoline-3-carboxylic acid]	1000 to 10000		
O=C(O)c1cn(-c2cnn(C3CN(CCF)C3)c2)c2cc(N3CCC[C@@H]3COc3ncccc3Cl)c(Cl)cc2c1=O [Compound 244, 6-chloro-7-[(2R)-2-[[(3-chloropyridin-2-yl)oxy]methyl]pyrrolidin-1-yl]-1-[1-[1-(2-fluoroethyl)azetidin-3-yl]pyrazol-4-yl]-4-oxoquinoline-3-carboxylic acid]		≤ 1000	
O=C(O)c1cn(C2CC3(CNC3)C2)c2cc(N3CCC[C@@H]3COc3ncccc3Cl)c(Cl)cc2c1=O [Example 369, 1-{2-Azaspiro[3.3]heptan-6-yl}-6-chloro-7-[(2R)-2-{[(3-chloropyridin-2-yl)oxy]methyl}pyrrolidin-1-yl]-4-oxo-1,4-dihydroquinoline-3-carboxylic acid]	1000 to 10000		
CN1CCC(n2cc(C(=O)O)c(=O)c3cc(Cl)c(N4CCC[C@@H]4COc4ncccc4Cl)cc32)CC1 [Example 462, (R)-6-chloro-7-(2-(((3-chloropyridin-2-yl)oxy)methyl)pyrrolidin-1-yl)-1-(1-methyl-piperidin-4-yl)-4-oxo-1,4-dihydro-quinoline-3-carboxylic acid]	1000 to 10000		
O=C(O)c1cn(C2CC2)c2cc(N3CCC[C@H]3COc3ccccn3)c(F)cc2c1=O [Compound 81, (S)-1-cyclopropyl-6-fluoro-4-oxo-7-(2-((pyridin-2-yloxy)methyl)pyrrolidin-1-yl)-1,4-dihydro-quinoline-3-carboxylic acid]		10000 to 50000	
O=C(O)c1cn(-c2cnccn2)c2cc(N3CCC[C@@H]3COc3ncccc3Cl)c(F)cc2c1=O [Compound 240, 7-[(2R)-2-[[(3-chloropyridin-2-yl)oxy]methyl]pyrrolidin-1-yl]-6-fluoro-4-oxo-1-(pyrazin-2-yl)quinoline-3-carboxylic acid]		≤ 1000	
CC1CCN(c2cc3c(cc2Cl)c(=O)c(C(=O)O)cn3-c2ccnc(N)c2)[C@H]1COc1nc(N(C)C)ccc1Cl (stereo partly drawn) [Compound 333]		≤ 1000	
CN(C)C1CN(c2ccc(-n3cc(C(=O)O)c(=O)c4cc(Cl)c(N5CCC5COc5ncccc5Cl)cc43)cn2)C1 (stereo not drawn) [Compound 184, 6-chloro-7-(2-(((3-chloropyridin-2-yl)oxy)methyl)azetidin-1-yl)-1-(6-(3-(dimethyl-amino)azetidin-1-yl)pyridin-3-yl)-4-oxo-1,4-dihydro-quinoline-3-carboxylic acid formic acid]		≤ 1000	
COc1ccc(Cl)c(OC[C@H]2CCCN2c2cc3c(cc2Cl)c(=O)c(C(=O)O)cn3-c2ccc(N3CC(N(C)C)C3)nc2)n1 [Compound 299, (R)-6-chloro-7-(2-(((3-chloro-6-methoxy-pyridin-2-yl)oxy)methyl)pyrrolidin-1-yl)-1-(6-(3-(dimethyl-amino)azetidin-1-yl)pyridin-3-yl)-4-oxo-1,4-dihydro-quinoline-3-carboxylic acid]		≤ 1000	
O=C(O)c1cn(-c2cc3cn[nH]c3cn2)c2cc(N3CCC[C@@H]3COc3ncccc3Cl)c(Cl)cc2c1=O [Example 474, (R)-6-chloro-7-(2-(((3-chloropyridin-2-yl)oxy)methyl)pyrrolidin-1-yl)-4-oxo-1-(1H-pyrazolo[3,4-c]pyridin-5-yl)-1,4-dihydroquinoline-3-carboxylic acid]	≤ 1000		

Further lines, with some results ahead:

IC50 [1] [nM]	IC50 [2] [nM]	Structure (SMILES)	also measured
≤ 1000		CN(C)C1CN(c2ccc(-n3cc(C(=O)O)c(=O)c4cc(Cl)c(N5CCC[C@@H]5COc5ncccc5Cl)cc43)cn2)C1 [Example 476, (R)-6-chloro-7-(2-(((3-chloropyridin-2-yl)oxy)methyl)pyrrolidin-1-yl)-1-(6-(3-(dimethyl-amino)azetidin-1-yl)pyridin-3-yl)-4-oxo-1,4-dihydroquinoline-3-carboxylic acid]	
≤ 1000		O=C(O)c1cn(-c2ncc[nH]2)c2cc(N3CCC[C@@H]3COc3ncccc3Cl)c(Cl)cc2c1=O [Example 560, (R)-6-chloro-7-(2-(((3-chloropyridin-2-yl)oxy)methyl)pyrrolidin-1-yl)-1-(1H-imidazol-2-yl)-4-oxo-1,4-dihydroquinoline-3-carboxylic acid]	
1000 to 10000		CC(c1ccccc1)n1cc(C(=O)O)c(=O)c2cc(Cl)c(N3CCC[C@@H]3COc3ncccc3Cl)cc21 (stereo partly drawn) [Example 583, 6-chloro-7-((R)-2-(((3-chloropyridin-2-yl)oxy)methyl)pyrrolidin-1-yl)-4-oxo-1-(1-phentylethyl)-1,4-dihydroquinoline-3-carboxylic acid]	
≤ 1000		COc1ccc(Cl)c(OC[C@H]2CCCN2c2cc3c(cc2Cl)c(=O)c(C(=O)O)cn3-c2ccnc(N)c2)n1 [Example 644, (R)-1-(2-aminopyridin-4-yl)-6-chloro-7-(2-(((3-chloro-6-methoxypyridin-2-yl)oxy)methyl)pyrrolidin-1-yl)-4-oxo-1,4-dihydroquinoline-3-carboxylic acid]	
≤ 1000		O=C(O)c1cn(-c2ccc(N3CC4(CNC4)C3)nc2)c2cc(N3CCC[C@@H]3COc3ncccc3Cl)c(Cl)cc2c1=O [Example 496, (R)-1-(6-(2,6-diazaspiro[3.3]heptan-2-yl)pyridin-3-yl)-6-chloro-7-(2-(((3-chloropyridin-2-yl)oxy)methyl)pyrrolidin-1-yl)-4-oxo-1,4-dihydroquinoline-3-carboxylic acid]	
≤ 1000		CN1CC2CN(c3ccc(-n4cc(C(=O)O)c(=O)c5cc(Cl)c(N6CCC[C@@H]6COc6ncccc6Cl)cc54)cn3)CC2C1 (stereo partly drawn) [Example 523, 6-chloro-7-((R)-2-(((3-chloropyridin-2-yl)oxy)methyl)pyrrolidin-1-yl)-1-(6-(5-methylhexahydro-pyrrolo[3,4-c]pyrrol-2(1H)-yl)pyridin-3-yl)-4-oxo-1,4-dihydroquinoline-3-carboxylic acid]	
≤ 1000		O=C(O)c1cn(Cc2cccnc2)c2cc(N3CCC[C@@H]3COc3ncccc3Cl)c(Cl)cc2c1=O [Example 557, (R)-6-chloro-7-(2-(((3-chloropyridin-2-yl)oxy)methyl)pyrrolidin-1-yl)-4-oxo-1-(pyridin-3-ylmethyl)-1,4-dihydroquinoline-3-carboxylic acid]	
≤ 1000		Nc1ccc(-n2cc(C(=O)O)c(=O)c3cc(Br)c(N4CCC[C@@H]4COc4ncccc4Cl)cc32)cn1 [Example 509, 1-(6-aminopyridin-3-yl)-6-bromo-7-[(2R)-2-{[(3-chloropyridin-2-yl)oxy]methyl}pyrrolidin-1-yl]-4-oxo-1,4-dihydroquinoline-3-carboxylic acid]	
